Legend:
Type in all cases: functional
[1] = Effect of compound on elevation of cAMP levels induced by 2 uM PGE1 at 100 uM
[2] = Platelet shape change and aggregation induced by the compound at 100 uM concentration
[3] = Effect of compound at 10 uM on platelet aggregation induced by 10 uM ADP
[4] = Platelet shape change and aggregation induced by the compound at 10 uM concentration
[5] = Effect of compound at 100 uM on platelet aggregation induced by 10 uM ADP
[6] = Effect of compound on elevation of cAMP levels induced by 2 uM PGE1 at 1 uM
[7] = Platelet shape change and aggregation induced by the compound at 1 uM concentration
[8] = Effect of compound on elevation of cAMP levels induced by 2 uM PGE1 at 10 uM
[9] = Effect of compound at 1 uM on platelet aggregation induced by 10 uM ADP
[10] = Inhibitory concentration of compound on platelet aggregation
[11] = Inhibitory effect of ADP (10 uM) on PGE1 (2 uM)-induced increase in platelet cAMP levels at 1 uM concentration of compound
[12] = Inhibitory effect of ADP (10 uM) on PGE1 (2 uM)-induced increase in platelet cAMP levels at 800 uM concentration of compound
[13] = Inhibitory effect of ADP (10 uM) on PGE1 (2 uM)-induced increase in platelet cAMP levels at 100 uM concentration of compound
[14] = Effect of compound at 800 uM on platelet aggregation induced by 10 uM ADP
[15] = Inhibitory effect of ADP (10 uM) on PGE1 (2 uM)-induced increase in platelet cAMP levels at 10 uM concentration of compound

| SMILES | Activity [1] | Light transmission [2] | Activity [3] | Light transmission [4] | Activity [5] | Activity [6] | Light transmission [7] | Activity [8] | Activity [9] | IC50 [10] | Inhibition [11] | Inhibition [12] | Inhibition [13] | Activity [14] | Inhibition [15] |
| --- | --- | --- | --- | --- | --- | --- | --- | --- | --- | --- | --- | --- | --- | --- | --- |
| CCCCC#Cc1nc(N)c2ncn(C3O[C@H](COP(=O)(O)OP(=O)(O)OP(=O)(O)O)[C@@H](O)[C@H]3O)c2n1 (stereo partly specified) | 27 | 39% | 90 | 9% | 64 | 59 | 0% | 35 | 92 | – | – | – | – | – | – |
| Nc1nc(C#Cc2ccccc2)nc2c1ncn2C1O[C@H](COP(=O)(O)OP(=O)(O)O)[C@@H](O)[C@H]1O (stereo partly specified) | – | – | 77.4 | – | 43.2 | – | – | – | 81.5 | 60 µM | 1% | 29.5% | 4.1% | 9.5 | 2.6% |
| Nc1nc(C#Cc2ccccc2)nc2c1ncn2C1O[C@H](COP(=O)(O)O)[C@@H](O)[C@H]1O (stereo partly specified) | – | – | 92.8 | – | 58.4 | – | – | – | 86 | 130 µM | 4.6% | 74.4% | 14.9% | 0.2 | 4.1% |
| Nc1nc(C#Cc2ccccc2)nc2c1ncn2[C@@H]1O[C@H](COP(=O)(O)OP(=O)(O)OP(=O)(O)O)[C@@H](O)[C@H]1O | – | – | 81.6 | – | 46.6 | – | – | – | 81 | 85 µM | 1.6% | 68.9% | 5.7% | 0.2 | 1.6% |
| CCCCC#Cc1nc(N)c2ncn(C3O[C@H](COP(=O)(O)O)[C@@H](O)[C@H]3O)c2n1 (stereo partly specified) | – | – | 54.4 | – | 11.8 | – | – | – | 75.2 | 14 µM | 6.7% | 58.2% | 13.6% | 0 | 9.6% |
| CCCCC#Cc1nc(N)c2ncn(C3O[C@H](COP(=O)(O)OP(=O)(O)O)[C@@H](O)[C@H]3O)c2n1 (stereo partly specified) | 38 | 41% | 99 | 17% | 100 | 58 | 0% | 50 | 98 | – | – | – | – | – | – |
| Nc1ncnc2c1ncn2[C@@H]1O[C@H](COP(=O)(O)OP(=O)(O)O)[C@@H](O)[C@H]1O [ADENOSINE DIPHOSPHATE] | – | – | – | 53% | – | – | – | 34 | – | – | – | – | – | – | – |
